Test results taken from PubChem BioAssay AID330 (DTP/NCI, 2004).
“And” between values parts separate entries of the source, which are not always exact repeats. Equal values may be shown once. Inconclusive results and toxic doses are left out. Rule for the calls: active = survival T/C of 150% or more; inactive = T/C below 125% in these data.

Tested on: P388 leukemia ip, CD2F1 mice, survival T/C
Experiment: NCI In Vivo Anticancer Drug Screen. Data for tumor model P388 Leukemia (intraperitoneal) in CD2F1 (CDF1) mice
Conditions: endpoint: median survival time, higher = longer survival
Outline: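 Mice carrying the transplanted tumor received test compound or vehicle. Survival was recorded in each group, and the value is the treated-group measurement divided by that of the vehicle-treated control group.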

[1] = dose: 25.0 mg/kg/injection, schedule: Q01DX005 (ip), vehicle: saline with Tween-80
[2] = dose: 50.0 mg/kg/injection, schedule: Q01DX005 (ip), vehicle: saline with Tween-80
[3] = dose: 100.0 mg/kg/injection, schedule: Q01DX005 (ip), vehicle: saline with Tween-80
[4] = dose: 200.0 mg/kg/injection, schedule: Q01DX005 (ip), vehicle: saline with Tween-80
[5] = dose: 100.0 mg/kg/injection, schedule: Q01DX009 (ip), vehicle: saline with Tween-80
[6] = dose: 200.0 mg/kg/injection, schedule: Q01DX009 (ip), vehicle: saline with Tween-80
[7] = dose: 50.0 mg/kg/injection, schedule: Q01DX005 (ip), vehicle: Klucel (hydroxypropylcellulose) (HPC)
[8] = dose: 100.0 mg/kg/injection, schedule: Q01DX005 (ip), vehicle: Klucel (hydroxypropylcellulose) (HPC)
[9] = dose: 50.0 mg/kg/injection, schedule: Q01DX009 (ip), vehicle: saline
[10] = dose: 100.0 mg/kg/injection, schedule: Q01DX009 (ip), vehicle: saline

Measured: T/C

CC1(C)CC[P+](CC[P+]2(c3ccccc3)CCC(C)(C)c3ccccc32)(c2ccccc2)c2ccccc21 (stereo unspecified)
inactive: dose: 0.75 mg/kg/injection, schedule: Q01DX005 (ip), vehicle: saline 103 % of control | dose: 1.5 mg/kg/injection, schedule: Q01DX005 (ip), vehicle: saline 101 % of control | dose: 3.0 mg/kg/injection, schedule: Q01DX005 (ip), vehicle: saline 103 % of control | dose: 3.12 mg/kg/injection, schedule: Q01DX005 (ip), vehicle: suspension in saline 89 % of control | dose: 12.5 mg/kg/injection, schedule: Q01DX005 (ip), vehicle: saline with Tween-80 100 % of control | [1] 100 % of control | [2] 102 % of control

CCOC(=O)C(N=Nc1ccc(Br)cc1C)C(C)=O (stereo unspecified)
inactive: [1] 98 % of control | [2] 99 % of control | [3] 98 % of control | [4] 89 % of control

CCOC(=O)C(=CNC1CC(OC2C[C@](O)(C(C)=O)Cc3c(O)c4c(c(O)c32)C(=O)c2c(OC)cccc2C4=O)OC(C)C1O)C(=O)OCC (stereo partly specified)
inactive: dose: 6.25 mg/kg/injection, schedule: Q04DX003 (ip), vehicle: saline with Tween-80 95 % of control | dose: 12.5 mg/kg/injection, schedule: Q04DX003 (ip), vehicle: saline with Tween-80 100 % of control | dose: 25.0 mg/kg/injection, schedule: Q04DX003 (ip), vehicle: saline with Tween-80 104 % of control | dose: 50.0 mg/kg/injection, schedule: Q04DX003 (ip), vehicle: saline with Tween-80 108 % of control

COc1cc2c(cc1OC)C(CCN)=NCC2
inactive: dose: 25.0 mg/kg/injection, schedule: Q01DX009 (ip), vehicle: saline sonified 95 % of control | dose: 50.0 mg/kg/injection, schedule: Q01DX009 (ip), vehicle: saline sonified 100 % of control | dose: 100.0 mg/kg/injection, schedule: Q01DX009 (ip), vehicle: saline sonified 100 % of control

CC1CC(O)C2C1CC1CCC2(C)OC1(C)C (stereo unspecified)
inactive: [5] 105 % of control | [6] 105 % of control | dose: 400.0 mg/kg/injection, schedule: Q01DX009 (ip), vehicle: saline with Tween-80 100 % of control

Cn1c(=O)oc2cc(NC(N)=O)c(Br)cc21
inactive: [7] 92 % of control | [8] 87 % of control

O=C1OC(=O)C2CCC12 (stereo unspecified)
inactive: dose: 50.0 mg/kg/injection, schedule: Q01DX009 (ip), vehicle: saline with Tween-80 106 % of control | dose: 60.0 mg/kg/injection, schedule: Q01DX005 (ip), vehicle: saline 93 % of control | [5] 106 % of control | dose: 120.0 mg/kg/injection, schedule: Q01DX005 (ip), vehicle: saline 89 % of control | [6] 97 % of control | dose: 240.0 mg/kg/injection, schedule: Q01DX005 (ip), vehicle: saline 86 % of control

CCC[CH2][Sn]([CH2]CCC)([CH2]CCC)[CH2]CCN(C)C
inactive: [9] 99 % of control | [10] 100 % of control

Cc1cc(O)c2c(c1)C(=O)C(c1c(C)cc3c(c1O)C(=O)C1OC1C3=O)=CC2=O (stereo unspecified)
inactive: dose: 0.78 mg/kg/injection, schedule: Q01DX005 (ip), vehicle: Klucel (hydroxypropylcellulose) (HPC) 91 % of control | dose: 1.56 mg/kg/injection, schedule: Q01DX005 (ip), vehicle: Klucel (hydroxypropylcellulose) (HPC) 106 % of control | dose: 3.12 mg/kg/injection, schedule: Q01DX005 (ip), vehicle: Klucel (hydroxypropylcellulose) (HPC) 113 % of control | dose: 6.25 mg/kg/injection, schedule: Q01DX005 (ip), vehicle: Klucel (hydroxypropylcellulose) (HPC) 100 % of control

CCOC(=O)CC1CC(=O)C(C(=O)OCC)C=C1C(=O)OCC (stereo unspecified)
inactive: [2] 94 % of control | [3] 98 % of control

NC(=O)C1C2CC3C(C2O)C31C(N)=O (stereo unspecified)
inactive: dose: 50.0 mg/kg/injection, schedule: Q01DX005 (ip), vehicle: saline 91 % of control | dose: 100.0 mg/kg/injection, schedule: Q01DX005 (ip), vehicle: saline 92 % of control | dose: 200.0 mg/kg/injection, schedule: Q01DX005 (ip), vehicle: saline 98 % of control

O=C1N=C2OC3(CCCCC3)OC(=O)N2C2(CCCCC2)O1
inactive: dose: 12.5 mg/kg/injection, schedule: Q01DX009 (ip), vehicle: distilled water + Tween-80 107 % of control | dose: 25.0 mg/kg/injection, schedule: Q01DX009 (ip), vehicle: distilled water + Tween-80 93 % of control | dose: 50.0 mg/kg/injection, schedule: Q01DX009 (ip), vehicle: distilled water + Tween-80 97 % of control | dose: 100.0 mg/kg/injection, schedule: Q01DX009 (ip), vehicle: distilled water + Tween-80 100 % of control and 96 % of control | dose: 200.0 mg/kg/injection, schedule: Q01DX009 (ip), vehicle: distilled water + Tween-80 109 % of control and 114 % of control

C[N+](C)(N)CCS(N)(=O)=O
inactive: [9] 103 % of control | [10] 103 % of control | dose: 200.0 mg/kg/injection, schedule: Q01DX009 (ip), vehicle: saline 100 % of control

Cn1cnc2c(F)ncnc21
inactive: [7] 100 % of control | [8] 101 % of control

CC(C)c1ccccc1Oc1ccccc1N=C1CCN(C)C1
inactive: dose: 12.5 mg/kg/injection, schedule: Q01DX009 (ip), vehicle: saline 100 % of control | dose: 25.0 mg/kg/injection, schedule: Q01DX009 (ip), vehicle: saline 107 % of control | [9] 100 % of control and 95 % of control

Cc1ccc(C2COc3cc(O)c(O)cc3C2)cc1 (stereo unspecified)
inactive: dose: 60.0 mg/kg/injection, schedule: Q01DX005 (ip), vehicle: saline with Tween-80 103 % of control | dose: 120.0 mg/kg/injection, schedule: Q01DX005 (ip), vehicle: saline with Tween-80 105 % of control | dose: 240.0 mg/kg/injection, schedule: Q01DX005 (ip), vehicle: saline with Tween-80 117 % of control

COc1cccc2c1C(=O)c1c(O)c3c(c(O)c1C2=O)C[C@@](O)(C(C)=O)C[C@@H]3OC1CC(N=C(N)CCSSCCC(N)=NC2CC(O[C@H]3C[C@](O)(C(C)=O)Cc4c(O)c5c(c(O)c43)C(=O)c3c(OC)cccc3C5=O)OC(C)C2O)C(O)C(C)O1 (stereo partly specified)
inactive: dose: 3.12 mg/kg/injection, schedule: Q04DX003 (ip), vehicle: distilled water + Tween-80 115 % of control | dose: 6.25 mg/kg/injection, schedule: Q04DX003 (ip), vehicle: distilled water + Tween-80 108 % of control and 122 % of control | dose: 12.5 mg/kg/injection, schedule: Q04DX003 (ip), vehicle: distilled water + Tween-80 118 % of control | dose: 25.0 mg/kg/injection, schedule: Q04DX003 (ip), vehicle: distilled water + Tween-80 116 % of control | dose: 50.0 mg/kg/injection, schedule: Q04DX003 (ip), vehicle: distilled water + Tween-80 105 % of control | dose: 100.0 mg/kg/injection, schedule: Q04DX003 (ip), vehicle: distilled water + Tween-80 121 % of control

ClCCN1c2ccccc2Sc2ccc3ccccc3c21
inactive: [2] 89 % of control | [3] 93 % of control

CC(C)C(NC(=O)C1CSC(C)(C)N1C=O)C(=O)O (stereo unspecified)
inactive: [2] 102 % of control | [3] 100 % of control | [4] 102 % of control

O=C(O)CCC(C(=O)O)N(Cc1ccccc1)Cc1ccccc1 (stereo unspecified)
inactive: dose: 100.0 mg/kg/injection, schedule: Q01DX001 (ip), vehicle: Klucel (hydroxypropylcellulose) (HPC) 105 % of control | dose: 200.0 mg/kg/injection, schedule: Q01DX001 (ip), vehicle: Klucel (hydroxypropylcellulose) (HPC) 100 % of control | dose: 400.0 mg/kg/injection, schedule: Q01DX001 (ip), vehicle: Klucel (hydroxypropylcellulose) (HPC) 105 % of control

O=C(c1ccc(Cl)nc1)c1cccs1
inactive: dose: 50.0 mg/kg/injection, schedule: Q01DX005 (ip), vehicle: distilled water + alcohol 98 % of control | dose: 100.0 mg/kg/injection, schedule: Q01DX005 (ip), vehicle: distilled water + alcohol 108 % of control | dose: 200.0 mg/kg/injection, schedule: Q01DX005 (ip), vehicle: distilled water + alcohol 110 % of control

COc1ccc(COC(=O)Nc2ccccc2F)c(OC)c1OC
inactive: [2] 91 % of control | [3] 101 % of control | [4] 100 % of control
